The text below walks through data of patent US11655216B2 (priority 2016, dated 2023).

Assay [1] has as its target T1, glutathione-S-transferase (GST) tagged LXRalpha LBD (ligand binding domain) (Homo sapiens, UniProt Q13133).
T1 construct: purchased Invitrogen pv4655
T1 sequence (Q13133 209-447 limits assumed): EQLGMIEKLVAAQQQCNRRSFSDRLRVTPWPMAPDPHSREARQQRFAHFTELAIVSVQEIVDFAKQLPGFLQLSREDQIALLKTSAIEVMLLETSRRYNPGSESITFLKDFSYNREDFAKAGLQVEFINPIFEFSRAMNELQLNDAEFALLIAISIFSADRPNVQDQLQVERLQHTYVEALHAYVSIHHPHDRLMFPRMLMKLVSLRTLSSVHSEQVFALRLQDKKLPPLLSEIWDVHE
Put plainly: biochemical. In outline:
(§1)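 Test ligands were combined with the receptor LBD, after which terbium-labelled anti-GST antibody and a fluorescein-tagged coactivator peptide were introduced together. Plates sat at room temperature, then time-resolved FRET was measured.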

Assay [2] addresses T2, glutathione-S-transferase (GST) tagged LXRbeta LBD (ligand binding domain) (Homo sapiens, UniProt P55055).
T2 construct: purchased Invitrogen pv4658
T2 sequence (P55055 222-460 limits assumed): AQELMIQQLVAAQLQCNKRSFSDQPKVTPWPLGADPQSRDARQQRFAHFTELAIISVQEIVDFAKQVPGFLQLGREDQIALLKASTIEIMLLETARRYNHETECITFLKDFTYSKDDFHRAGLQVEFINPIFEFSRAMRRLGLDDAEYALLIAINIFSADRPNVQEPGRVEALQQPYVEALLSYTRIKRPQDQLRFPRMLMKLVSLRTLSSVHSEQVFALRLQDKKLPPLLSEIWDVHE
Put plainly: LanthaScreen TR-FRET Liver X Receptor Coactivator Assay, LXR beta. Format: biochemical. The note with it: for pEC50: LXR beta IP, potency (Inflection Point), compound-induced co-activator recruitment, TR-FRET; for Emax: read-out: LXR beta actiivty at max dose, efficacy (% Emax) in relation to reference dual agonist T0901317; for LXR beta actiivty at max dose: efficacy (% Emax) in relation to reference dual agonist T0901317. In outline: as §1

The mark [3] stands for this setting: potency (Inflection Point), compound-induced co-activator recruitment, TR-FRET.
[4] abbreviates: read-out: LXR alpha actiivty at max dose, efficacy (% Emax) in relation to reference dual agonist T0901317.
Where [5] appears, read: LXR alpha IP, potency (Inflection Point), compound-induced co-activator recruitment, TR-FRET.
Where [6] appears, read: efficacy (% Emax) in relation to reference dual agonist T0901317, read-out: LXR alpha actiivty at max dose.
[7] abbreviates: potency (Inflection Point), compound-induced co-activator recruitment, TR-FRET, read-out: LXR alpha IP.

pEC50: −log10 of the molar value. Read-outs that look alike come from different tables or passages of the source.

In the case of `CN(C)C(=O)c1ccc(OCCC2CC23CCN(C(=O)C2(c4ccc(Br)cc4)COC2)CC3)cc1Cl` (single isomer, unassigned) [Example 12-12, (S or R)-4-(2-(6-(3-(4-bromophenyl)oxetane-3-carbonyl)-6-azaspiro[2.5]octan-1-yl)ethoxy)-2-chloro-N,N-dimethylbenzamide], in assay [1] (setting [3]), the “LXR alpha IP” value is recorded as “No IP”. Also, the Emax in assay [1] (setting [4]) was 28%. Moreover, in assay [2], the pEC50 was 7.09 and the Emax was determined as 60%.

Take `CN(C)C(=O)c1ccc(OCCCCC2CCN(C(=O)C3(c4ccccc4)CCC3)CC2)cc1Cl` [Example 3-7, 2-chloro-N,N-dimethyl-4-(4-(1-(1-phenylcyclobutanecarbonyl)piperidin-4-yl)butoxy)benzamide]: the “LXR alpha IP” value in assay [1] (setting [3]) is “No IP”. The Emax in assay [1] (setting [4]) was found to be 0%. Also, in assay [2], the pEC50 is 7.24 and the Emax worked out at 54%.

With `COc1cccc(C(O)(C(=O)N2CCC3(CCC(Oc4ccc(C(=O)N(C)C)c(Cl)c4)CC3)CC2)C(F)(F)F)c1` (single isomer, unassigned) [Example 1-1, 2-chloro-N,N-dimethyl-4-(3-((R or S)-3,3,3-trifluoro-2-hydroxy-2-(3-methoxyphenyl)propanoyl)-3-azaspiro[5.5]undecan-9-yloxy)benzamide], the figures for the pEC50 in assay [1] (LXR alpha IP) and in assay [2] were 6.18 and 7.60, respectively. Besides, the Emax in assay [1] (read-out: LXR alpha actiivty at max dose) came to 22%; in assay [2] it was 51%.

As to `CN(C)C(=O)c1ccc(OCCCCC2CCN(S(=O)(=O)c3ccccc3C#N)CC2)nc1Cl` [Example 7-3, 2-chloro-6-(4-(1-(2-cyanophenylsulfonyl)piperidin-4-yl)butoxy)-N,N-dimethylnicotinamide], the pEC50 in assay [1] (setting [5]) was 5.53; in assay [2], 6.95. In addition, the Emax in assay [1] (setting [4]) came to 57%; in assay [2] it was 120%.

In assay [1] (setting [5]), `COc1cccc(C(O)(C(=O)N2CCC3(CCC(Oc4ccc(C(=O)N(C)C)c(Cl)n4)CC3)CC2)C(F)(F)F)c1` (single isomer, unassigned) [Example 1-2, 2-chloro-N,N-dimethyl-6-(3-((S or R)-3,3,3-trifluoro-2-hydroxy-2-(3-methoxyphenyl)propanoyl)-3-azaspiro[5.5]undecan-9-yloxy)nicotinamide] had a pEC50 of 5.73. In assay [1] (setting [4]), the Emax came out at 35%. Moreover, in assay [2], the pEC50 is 7.04 and the “LXR beta actiivty at max dose” value worked out at 120%.

Take `COc1cccc(C(O)(C(=O)N2CCC(C(F)(F)CCCOc3ccc(C(=O)N(C)C)c(Cl)c3)CC2)C(F)(F)F)c1` (single isomer, unassigned) [Example 22-1, (R or S)-2-chloro-4-(4,4-difluoro-4-(1-(3,3,3-trifluoro-2-hydroxy-2-(3-methoxyphenyl)propanoyl)piperidin-4-yl)butoxy)-N,N-dimethylbenzamide]: the Emax in assay [1] (setting [6]) came out at 32%; in assay [2], 67%. The pEC50 in assay [1] (setting [7]) was 6.67; in assay [2] it was 8.15.

Turning to `O=C(c1ccc(OCCCCC2CCN(C(=O)C(O)(c3ccccc3)C(F)(F)F)CC2)cc1Cl)N1CCC1` (single isomer, unassigned) [Example 8-1, (R or S)-1-(4-(4-(4-(azetidine-1-carbonyl)-3-chlorophenoxy)butyl)piperidin-1-yl)-3,3,3-trifluoro-2-hydroxy-2-phenylpropan-1-one], the pEC50 in assay [1] (setting [5]) is 6.48; in assay [2] it was 7.48. Besides, the Emax is 10% in assay [1] (setting [4]) and 55% in assay [2].

Turning to `CN(C)C(=O)c1ccc(OCCCCC2CCN(C(=O)C(O)(c3cccc(OC(F)(F)F)c3)C(F)(F)F)CC2)cc1Cl` (single isomer, unassigned) [Example 3-9, (R or S)-2-chloro-N,N-dimethyl-4-(4-(1-(3,3,3-trifluoro-2-hydroxy-2-(3-(trifluoromethoxy)phenyl)propanoyl)piperidin-4-yl)butoxy)benzamide], the pEC50 is 6.54 in assay [1] (setting [5]) and 7.82 in assay [2]. Further, the Emax came out at 17% in assay [1] (setting [4]) and 64% in assay [2].

Regarding `CC(CCCOc1ccc(C(=O)N(C)C)c(Cl)c1)C1CCN(C(=O)C(O)(c2ccccc2)C(F)(F)F)CC1` (single isomer, unassigned) [Example 26-4, 2-chloro-N,N-dimethyl-4-((S or R)-4-(1-((S or R)-3,3,3-trifluoro-2-hydroxy-2-phenylpropanoyl)piperidin-4-yl)pentyloxy)benzamide], the pEC50 in assay [1] (setting [5]) is 6.17; in assay [2], 7.39. In assay [1] (efficacy (% Emax) in relation to reference dual agonist T0901317), the “LXR alpha actiivty at max dose” value worked out at 35%. Moreover, the “LXR beta actiivty at max dose” value in assay [2] was found to be 114%.

In the case of `COc1cccc([C@@](O)(C(=O)N2CCC(CCCCOc3ccc(C(=O)N(C)C)c(C#N)n3)CC2)C(F)(F)F)c1` (single isomer, unassigned) [Example 4-2, (R or S)-2-cyano-N,N-dimethyl-6-(4-(1-(3,3,3-trifluoro-2-hydroxy-2-(3-methoxyphenyl)propanoyl)piperidin-4-yl)butoxy) nicotinamide], the pEC50 in assay [1] (setting [5]) is 6.31; in assay [2] it was 7.92. Moreover, the figures for the Emax in assay [1] (setting [4]) and in assay [2] were 28% and 81%, respectively.

As for `CN(C(=O)c1ccc(OCCCCC2CCN(C(=O)[C@](O)(c3ccccc3)C(F)(F)F)CC2)cc1Cl)C1CC1` (single isomer, unassigned) [Example 8-12, (R or S)-2-chloro-N-cyclopropyl-N-methyl-4-(4-(1-(3,3,3-trifluoro-2-hydroxy-2-phenylpropanoyl)piperidin-4-yl)butoxy) benzamide], the pEC50 is 6.45 in assay [1] (setting [5]) and 7.80 in assay [2]. Further, the Emax in assay [1] (setting [4]) amounted to 7%; in assay [2], 64%.

For the compound `COc1cccc(C(O)(C(=O)N2CCC(CCCCOc3ccc(C(=O)N(C)C)c(Cl)c3)CC2)C(F)(F)F)c1` (single isomer, unassigned) [Example 3-13, (S or R)-2-chloro-N,N-dimethyl-4-(4-(1-(3,3,3-trifluoro-2-hydroxy-2-(3-methoxyphenyl)propanoyl)piperidin-4-yl)butoxy)benzamide], in assay [1] (setting [3]), the “LXR alpha IP” value is “No IP”. In addition, in assay [1] (setting [4]), the Emax came to 0%. In assay [2], the pEC50 was 6.40 and the Emax is 61%.

`CN(C)C(=O)c1ccc(OCC[C@@H]2CC23CCN(C(=O)C2(c4ccccc4Br)CCC2)CC3)cc1Cl` (single isomer, unassigned) [Example 12-17, (S or R)-4-(2-(6-(1-(2-bromophenyl)cyclobutanecarbonyl)-6-azaspiro[2.5]octan-1-yl)ethoxy)-2-chloro-N,N-dimethylbenzamide]: the figures for the pEC50 in assay [1] (setting [5]) and in assay [2] were 6.78 and 8.05, respectively. The Emax in assay [1] (setting [4]) was determined as 35%; in assay [2], 79%.

`CC(CCCOc1ccc(C(=O)N(C)C)c(Cl)c1)C1CCN(C(=O)C(O)(c2ccccc2)C(F)(F)F)CC1` (single isomer, unassigned) [Example 26-2, 2-chloro-N,N-dimethyl-4-((R or S)-4-(1-((R or S)-3,3,3-trifluoro-2-hydroxy-2-phenylpropanoyl)piperidin-4-yl)pentyloxy)benzamide]: the pEC50 was 6.99 in assay [1] (setting [5]) and 8.22 in assay [2]. Also, the Emax in assay [1] (setting [4]) stood at 41%. Further, the “LXR beta actiivty at max dose” value in assay [2] was determined as 71%.

`CN(C)C(=O)c1ccc(OCC[C@H]2C[C@H]2C2CCN(C(=O)[C@](O)(c3ccccc3)C(F)(F)F)CC2)cc1C#N` (single isomer, unassigned) [Example 11-1, 2-cyano-N,N-dimethyl-4-(2-((1R,2S or 1S,2R)-2-(1-((R or S)-3,3,3-trifluoro-2-hydroxy-2-phenylpropanoyl)piperidin-4-yl)cyclopropyl)ethoxy)benzamide]: the Emax is 23% in assay [1] (setting [6]) and 78% in assay [2]. For the same compound, the pEC50 is 5.85 in assay [1] (setting [7]) and 6.97 in assay [2].

For the compound `O=C(c1cscn1)N1CCC(CCCCOc2ccc(C(=O)N3CCCC3)c(Cl)c2)CC1` [Example 8-20, (2-chloro-4-(4-(1-(thiazole-4-carbonyl)piperidin-4-yl)butoxy)phenyl) (pyrrolidin-1-yl)methanone], in assay [1] (setting [3]), the “LXR alpha IP” value is on record as “No IP”. Also, in assay [1] (setting [4]), the Emax was determined as 4%. In assay [2], the pEC50 was 5.36 and the Emax amounted to 25%.

Turning to `CN(C)C(=O)c1ccc(OCCC[C@@H]2CC23CCN(C(=O)[C@@](O)(c2ccccc2)C(F)(F)F)CC3)nc1Cl` (single isomer, unassigned) [Example 15-2, 2-chloro-N,N-dimethyl-6-(3-((R or S)-6-((S or R)-3,3,3-trifluoro-2-hydroxy-2-phenylpropanoyl)-6-azaspiro[2.5]octan-1-yl)propoxy)nicotinamide], the pEC50 was 6.18 in assay [1] (setting [7]) and 7.19 in assay [2]. In addition, the Emax in assay [1] (setting [4]) was determined as 32%; in assay [2], 115%.
